# From patent EP4389751A1, “HETEROCYCLIC COMPOUNDS AND USES THEREOF” (Kumquat Biosciences Inc., priority 2021, dated 2024)
# Legend:
# [1] = target: T1, KRAS protein (His-tagged GDP-loaded G12S 1-169) (Homo sapiens, UniProt P01116, G12S); assay: Covalent modification of KRAS protein, intact-protein LC-MS; assay type: binding; settings: 24hrs at room temperature, KRAS protein ~2 µM
# T1 construct: His-tagged GDP-loaded G12S 1-169
# Description: Test compounds are prepared as 10 mM stock solutions in DMSO (Fisher cat#BP231-100). KRAS protein (His-tagged GDP-loaded wildtype 1-169, His-tagged GDP-loaded G12S 1-169 or His-tagged GDP-loaded G12D 1-169) is diluted to ~2 µM in appropriate buffer (e.g., a Hepes buffer at physiological conditions). For testing KRAS modification, compounds are diluted to 50X final test concentration in DMSO in 96-well storage plates. 2 µl of the diluted 50X compounds are added to appropriate wells in the PCR plate (Fisher cat#AB-0800). […] of the stock protein solution is added to each well of the 96-well PCR plate. Reactions are mixed carefully. The plate is sealed well with aluminum plate seal, and stored in drawer at room temperature for 24hrs. 5 µl of 2% formic acid (Fisher cat#A1 17-50) in MilliQ H2O is then added to each well followed by mixing with a pipette. The plate is then resealed with aluminum seal and stored until mass spectrometry analysis.
# The extent of covalent modification of KRAS proteins was determined by liquid chromatography electrospray mass spectrometry analysis of the intact proteins on a Thermo Q-Exactive Plus mass spectrometer. 20 µl of sample was injected onto a bioZen 3.6 µm Intact C4 column (Phenomenex cat#00B-4767-AN) placed in a column oven set to 40°C and separated using a suitable LC gradient from -20% to ~60% solvent B. Solvent A was 0.1% formic acid and solvent B was 0.1% formic acid in acetonitrile. HESI source settings were set to 40, 5 and 1 for the sheath, auxiliary and sweep gas flow, respectively. The spray voltage was 4 kV, and the capillary temperature was 320°C. S-lens RF level was 50 and auxiliary gas heater temperature was set to 200°C. The mass spectrometry was acquired using a scan range from 650 to 1750 m/z using positive polarity at a mass resolution of 70,000, AGC target of 1e6 ions and maximum injection time of 250ms. The recorded protein mass spectrum was deconvoluted from the raw data file using Protein Deconvolution v4.0 (Thermo). The protein mass and adduct masses were exported with their peak intensities. The peak intensities for the unmodified and modified protein were used to calculate the percent covalent modification of the KRAS protein based on the following equation: %KRAS protein modification = ((KRAS-compound) / (KRAS) + (KRAS-Compound)) *100.
# K-Ras G12S = target: T2, K-Ras G12S (Homo sapiens, UniProt P01116, G12S); assay: HTRF assay of the K-Ras / SOS1 interaction; assay type: biochemical; settings: IC50 (against K-Ras G12D) to IC50 (against K-Ras G12S)
# T2 construct: made in house; host or cells: E. coli (e.g., BL21 (DE3))
# Method in brief: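 Compounds (duplicates, 10 µM to 0.01 µM) were incubated ≥~10 min with Eu-labelled GST-K-Ras G12S and XL665-labelled His-hSOS1 in HEPES pH 7.4 buffer containing NaCl, DTT, BSA and Igepal. Disruption measured as HTRF emission ratio 665/620 nm, fitted to IC50.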
SMILES,% G12S Modification at 24 hr. [1],Ratio of IC50 KRAS G12D vs. IC50 KRAS G12S (K-Ras G12S)
"Nc1nc2c(-c3c(Cl)cc4c(N5CCC6(CCN(C(=O)n7cncn7)CC6)C5)nc(OC[C@@]56CCCN5C[C@H](F)C6)nc4c3F)ccc(F)c2s1 [Compound A198, (2-(7-(2-amino-7-fluorobenzo[d]thiazol-4-yl)-6-chloro-8-fluoro-2-(((2R,7aS)-2-fluorotetrahydro-1H-pyrrolizin-7a(5H)-yl)methoxy)quinazolin-4-yl)-2,8-diazaspiro[4.5]decan-8-yl)(1H-1,2,4-triazol-1-yl)methanone]",+++ (+++ indicates greater than 20% labelling),A (A: indicates that the ratio of IC50 against KrasG12D vs. IC50 against KrasG12S is 1-fold or greater)
"N#Cc1c(N)sc2c(F)ccc(-c3ncc4c(N5CCOC6(CN(C(=O)n7cncn7)C6)C5)nc(OC[C@@]56CCCN5C[C@H](F)C6)nc4c3F)c12 [Compound A161, 4-(4-(2-(1H-1,2,4-triazole-1-carbonyl)-5-oxa-2,8-diazaspiro[3.5]nonan-8-yl)-8-fluoro-2-(((2R,7aS)-2-fluorotetrahydro-1H-pyrrolizin-7a(5H)-yl)methoxy)pyrido[4,3-d]pyrimidin-7-yl)-2-amino-7-fluorobenzo[b]thiophene-3-carbonitrile]",+++ (+++ indicates greater than 20% labelling),A (A: indicates that the ratio of IC50 against KrasG12D vs. IC50 against KrasG12S is 1-fold or greater)
"Nc1nc2c(-c3c(Cl)cc4c(N5CCCC6(CN(C(=O)n7cncn7)CCO6)C5)nc(OC[C@@]56CCCN5C[C@H](F)C6)nc4c3F)ccc(F)c2s1 (stereo partly drawn) [Compound A125, (8-(7-(2-amino-7-fluorobenzo[d]thiazol-4-yl)-6-chloro-8-fluoro-2-(((2R,7aS)-2-fluorotetrahydro-1H-pyrrolizin-7a(5H)-yl)methoxy)quinazolin-4-yl)-1-oxa-4,8-diazaspiro [5.5]undecan-4-yl)(1H-1,2,4-triazol-1-yl)methanone]",++ (++ indicates between about 1%- 20% labelling),A (A: indicates that the ratio of IC50 against KrasG12D vs. IC50 against KrasG12S is 1-fold or greater)
"N#Cc1c(N)sc2c(F)ccc(-c3c(Cl)cc4c(OC5CCCCN(C(=O)n6cncn6)C5)nc(OC[C@@]56CCCN5C[C@H](F)C6)nc4c3F)c12 (stereo partly drawn) [Compound A169, 4-(4-((1-(1H-1,2,4-triazole-1-carbonyl)azepan-3-yl)oxy)-6-chloro-8-fluoro-2-(((2R,7aS)-2-fluorotetrahydro-1H-pyrrolizin-7a(5H)-yl)methoxy)quinazolin-7-yl)-2-amino-7-fluorobenzo[b]thiophene-3-carbonitrile]",+++ (+++ indicates greater than 20% labelling),A (A: indicates that the ratio of IC50 against KrasG12D vs. IC50 against KrasG12S is 1-fold or greater)
"N#Cc1c(N)sc2c(F)ccc(-c3c(Cl)cc4c(O[C@@H]5CCN(C(=O)n6cncn6)C5)nc(OCC56CCCN5C[C@H](F)C6)nc4c3F)c12 (stereo partly drawn) [Compound A213, 4-(4-(((R)-1-(1H-1,2,4-triazole-1-carbonyl)pyrrolidin-3-yl)oxy)-6-chloro-8-fluoro-2-(((2R)-2-fluorotetrahydro-1H-pyrrolizin-7a(5H)-yl)methoxy)quinazolin-7-yl)-2-amino-7-fluorobenzo[b]thiophene-3-carbonitrile]",++ (++ indicates between about 1%- 20% labelling),A (A: indicates that the ratio of IC50 against KrasG12D vs. IC50 against KrasG12S is 1-fold or greater)
"N#Cc1nccn1C(=O)N1CC2CN(c3nc(OC[C@@]45CCCN4C[C@H](F)C5)nc4c(F)c(-c5ccc(F)c6sc(N)nc56)c(Cl)cc34)CC2C1 (stereo partly drawn) [Compound A236, 1-(5-(7-(2-amino-7-fluorobenzo[d]thiazol-4-yl)-6-chloro-8-fluoro-2-(((2R,7aS)-2-fluorotetrahydro-1H-pyrrolizin-7a(5H)-yl)methoxy)quinazolin-4-yl)octahydropyrrolo[3,4-c]pyrrole-2-carbonyl)-1H-imidazole-2-carbonitrile]",++ (++ indicates between about 1%- 20% labelling),A (A: indicates that the ratio of IC50 against KrasG12D vs. IC50 against KrasG12S is 1-fold or greater)
"N#Cc1cnn(C(=O)N2CCCN(c3nc(OC[C@@]45CCCN4C[C@H](F)C5)nc4c(F)c(-c5ccc(F)c6sc(N)nc56)c(Cl)cc34)CC2)c1 [Compound A231, 1-(4-(7-(2-amino-7-fluorobenzo[d]thiazol-4-yl)-6-chloro-8-fluoro-2-(((2R,7aS)-2-fluorotetrahydro-1H-pyrrolizin-7a(5H)-yl)methoxy)quinazolin-4-yl)-1,4-diazepane-1-carbonyl)-1H-pyrazole-4-carbonitrile]",++ (++ indicates between about 1%- 20% labelling),A (A: indicates that the ratio of IC50 against KrasG12D vs. IC50 against KrasG12S is 1-fold or greater)
"N#Cc1c(N)sc2c(F)ccc(-c3c(Cl)cc4c(N5CC6CCCN(C(=O)n7cncn7)C6C5)nc(OC[C@@]56CCCN5C[C@H](F)C6)nc4c3F)c12 (stereo partly drawn) [Compound A284, 4-(4-(1-(1H-1,2,4-triazole-1-carbonyl)octahydro-6H-pyrrolo[3,4-b]pyridin-6-yl)-6-chloro-8-fluoro-2-(((2R,7aS)-2-fluorotetrahydro-1H-pyrrolizin-7a(5H)-yl)methoxy)quinazolin-7-yl)-2-amino-7-fluorobenzo[b]thiophene-3-carbonitrile]",+++ (+++ indicates greater than 20% labelling),A (A: indicates that the ratio of IC50 against KrasG12D vs. IC50 against KrasG12S is 1-fold or greater)
"N#Cc1c(N)sc2c(F)ccc(-c3c(Cl)cc4c(N5CC(F)(F)C6CN(C(=O)n7cncn7)CCC65)nc(OC[C@@]56CCCN5C[C@H](F)C6)nc4c3F)c12 (stereo partly drawn) [Compound A263, 2-amino-4-(6-chloro-4-(3,3-difluoro-5-(1H-1,2,4-triazole-1-carbonyl)octahydro-1H-pyrrolo[3,2-c]pyridin-1-yl)-8-fluoro-2-(((2R,7aS)-2-fluorotetrahydro-1H-pyrrolizin-7a(5H)-yl)methoxy)quinazolm-7-yl)-7-fluorobenzo[b]thiophene-3-carbonitrile]",++ (++ indicates between about 1%- 20% labelling),A (A: indicates that the ratio of IC50 against KrasG12D vs. IC50 against KrasG12S is 1-fold or greater)
"CN1CCC[C@H]1COc1nc(N2CCOC3(CN(C(=O)n4cncn4)C3)C2)c2cc(Cl)c(-c3ccc(F)c4sc(N)c(C#N)c34)c(F)c2n1 [Compound A182, 4-(4-(2-(1H-1,2,4-triazole-1-carbonyl)-5-oxa-2,8-diazaspiro[3.5]nonan-8-yl)-6-chloro-8-fluoro-2-(((S)-1-methylpyrrolidin-2-yl)methoxy)quinazolin-7-yl)-2-amino-7-fluorobenzo[b]thiophene-3-carbonitrile]",++ (++ indicates between about 1%- 20% labelling),A (A: indicates that the ratio of IC50 against KrasG12D vs. IC50 against KrasG12S is 1-fold or greater)
